Laboratory results: US20110071177A1, “FUNGICIDAL ACTIVE SUBSTANCE COMBINATION” (Bayer CropScience AG, priority 2005, published 2011)

System: Sphaerotheca fuliginea
Assay: Sphaerotheca test (cucumber) / protective
Format: in vivo, Sphaerotheca fuliginea on cucumber
Conditions: application rate 4 ppm, evaluation 7 days after inoculation
Experimental: Solvents: 24.5 parts by weight of acetone • 24.5 parts by weight of dimethylacetamide Emulsifier: 1 part by weight of alkylaryl polyglycol ether To produce a suitable preparation of active compound, 1 part by weight of active compound or active compound combination is mixed with the stated amounts of solvents and emulsifier, and the concentrate is diluted with water to the desired concentration, or a commercial formulation of active compound or active compound combination with water is diluted with water to the desired concentration. To test for protective activity, young plants are sprayed with the active compound preparation at the stated application rate. After the spray coating has dried on, the plants are inoculated with an aqueous spore suspension of Sphaerotheca fuliginea. The plants are then placed in a greenhouse at about 23° C. and a relative atmospheric humidity of about 70%. Evaluation is carried out 7 days after inoculation. Here, 0% means an efficacy which corresponds to that of the control, whereas an efficacy of 100% means that no infestation is observed.

CO/N=C(/C(=O)OC)c1ccccc1CO/N=C(\C)c1cccc(C(F)(F)F)c1 [2-[α-{[(α-methyl-3-trifluoromethylbenzyl)imino]oxy}-o-tolyl]glyoxylic acid methyl ester O-methyloxime]
% efficacy: 10%
